From patent US20220169628A1 (University of Florida Research Foundation, Incorporated, priority 2019, published 2022)

How the values were obtained:
RS4;11 cells = experiment: Cell viability assay, MTS, 48 h, RS4;11; assay type: cell-based; conditions: Homo sapiens, RS4-11, 48 h, 48 hours, read-out: IC50 (48 hours) RS4;11
Description: (§1) Acute lymphoblastic leukemia cells (MOLT-4 and RS4; 11) or small cell lung cancer (NCI-H146 or simply H146) were incubated with increasing concentrations of Bcl-xL degraders for 48 h. Cell viability was measured by tetrazolium-based MTS assay.

MOLT-4 cells = experiment: Cell viability assay, MTS, 48 h, MOLT-4; assay type: cell-based; conditions: Homo sapiens, MOLT-4, 48 h, 48 hours, read-out: IC50 (48 hours) MOLT-4
Description: as §1

| Structure (SMILES) | IC50 (RS4;11 cells) [nM] | IC50 (MOLT-4 cells) [nM] |
| --- | --- | --- |
| Cc1ncsc1-c1ccc([C@H](C)NC(=O)[C@@H]2C[C@@H](O)CN2C(=O)[C@@H](NC(=O)CCCCCC(=O)N2CCCN(CC3(C)CCC(c4ccc(Cl)cc4)=C(CN4CCN(c5ccc(C(=O)NS(=O)(=O)c6ccc(N[C@H](CCN7CCOCC7)CSc7ccccc7)c(S(=O)(=O)C(F)(F)F)c6)cc5)CC4)C3)CC2)C(C)(C)C)cc1 (stereo partly drawn) [degrader #21, (2S,4R)-1-((2S)-2-(7-(4-((4′-chloro-4-methyl-6-((4-(4-(((4-(((R)-4-morpholino-1-(phenylthio)butan-2-yl)amino)-3-((trifluoromethyl)sulfonyl)phenyl)sulfonyl)carbamoyl)phenyl)piperazin-1-yl)methyl)-2,3,4,5-tetrahydro-[1,1′-biphenyl]-4-yl)methyl)-1,4-diazepan-1-yl)-7-oxoheptanamido)-3,3-dimethylbutanoyl)-4-hydroxy-N—((S)-1-(4-(4-methylthiazol-5-yl)phenyl)ethyl)pyrrolidine-2-carboxamide] | < 50 | 50 to 150 |
| Cc1ncsc1-c1ccc([C@H](C)NC(=O)[C@@H]2C[C@@H](O)CN2C(=O)[C@@H](NC(=O)CCCCCCC(=O)N2CCC3(CCN(CC4(C)CCC(c5ccc(Cl)cc5)=C(CN5CCN(c6ccc(C(=O)NS(=O)(=O)c7ccc(N[C@H](CCN8CCOCC8)CSc8ccccc8)c(S(=O)(=O)C(F)(F)F)c7)cc6)CC5)C4)CC3)CC2)C(C)(C)C)cc1 (stereo partly drawn) [degrader #29, (2S,4R)-1-((2S)-2-(8-(9-((4′-chloro-4-methyl-6-((4-(4-(((4-(((R)-4-morpholino-1-(phenylthio)butan-2-yl)amino)-3-((trifluoromethyl)sulfonyl)phenyl)sulfonyl)carbamoyl)phenyl)piperazin-1-yl)methyl)-2,3,4,5-tetrahydro-[1,1′-biphenyl]-4-yl)methyl)-3,9-diazaspiro[5.5]undecan-3-yl)-8-oxooctanamido)-3,3-dimethylbutanoyl)-4-hydroxy-N—((S)-1-(4-(4-methylthiazol-5-yl)phenyl)ethyl)pyrrolidine-2-carboxamide] | < 50 | < 50 |
| Cc1ncsc1-c1ccc([C@H](C)NC(=O)[C@@H]2C[C@@H](O)CN2C(=O)[C@@H](NC(=O)CCCCC(=O)N2CC3(CCN(CC4(C)CCC(c5ccc(Cl)cc5)=C(CN5CCN(c6ccc(C(=O)NS(=O)(=O)c7ccc(N[C@H](CCN8CCOCC8)CSc8ccccc8)c(S(=O)(=O)C(F)(F)F)c7)cc6)CC5)C4)CC3)C2)C(C)(C)C)cc1 (stereo partly drawn) [degrader #30, (2S,4R)-1-((2S)-2-(6-(7-((4′-chloro-4-methyl-6-((4-(4-(((4-(((R)-4-morpholino-1-(phenylthio)butan-2-yl)amino)-3-((trifluoromethyl)sulfonyl)phenyl)sulfonyl)carbamoyl)phenyl)piperazin-1-yl)methyl)-2,3,4,5-tetrahydro-[1,1′-biphenyl]-4-yl)methyl)-2,7-diazaspiro[3.5]nonan-2-yl)-6-oxohexanamido)-3,3-dimethylbutanoyl)-4-hydroxy-N—((S)-1-(4-(4-methylthiazol-5-yl)phenyl)ethyl)pyrrolidine-2-carboxamide] | < 50 | 50 to 150 |
| Cc1ncsc1-c1ccc([C@H](C)NC(=O)[C@@H]2C[C@@H](O)CN2C(=O)[C@@H](NC(=O)CCCCCC(=O)N2CC3(CCN(CC4(C)CCC(c5ccc(Cl)cc5)=C(CN5CCN(c6ccc(C(=O)NS(=O)(=O)c7ccc(N[C@H](CCN8CCOCC8)CSc8ccccc8)c(S(=O)(=O)C(F)(F)F)c7)cc6)CC5)C4)CC3)C2)C(C)(C)C)cc1 (stereo partly drawn) [degrader #31, (2S,4R)-1-((2S)-2-(7-(7-((4′-chloro-4-methyl-6-((4-(4-(((4-(((R)-4-morpholino-1-(phenylthio)butan-2-yl)amino)-3-((trifluoromethyl)sulfonyl)phenyl)sulfonyl)carbamoyl)phenyl)piperazin-1-yl)methyl)-2,3,4,5-tetrahydro-[1,1′-biphenyl]-4-yl)methyl)-2,7-diazaspiro[3.5]nonan-2-yl)-7-oxoheptanamido)-3,3-dimethylbutanoyl)-4-hydroxy-N—((S)-1-(4-(4-methylthiazol-5-yl)phenyl)ethyl)pyrrolidine-2-carboxamide] | < 50 | 50 to 150 |
| Cc1ncsc1-c1ccc([C@H](C)NC(=O)[C@@H]2C[C@@H](O)CN2C(=O)[C@@H](NC(=O)CCCCCCC(=O)N2CC3(CCN(CC4(C)CCC(c5ccc(Cl)cc5)=C(CN5CCN(c6ccc(C(=O)NS(=O)(=O)c7ccc(N[C@H](CCN8CCOCC8)CSc8ccccc8)c(S(=O)(=O)C(F)(F)F)c7)cc6)CC5)C4)CC3)C2)C(C)(C)C)cc1 (stereo partly drawn) [degrader #32, (2S,4R)-1-((2S)-2-(8-(7-((4′-chloro-4-methyl-6-((4-(4-(((4-(((R)-4-morpholino-1-(phenylthio)butan-2-yl)amino)-3-((trifluoromethyl)sulfonyl)phenyl)sulfonyl)carbamoyl)phenyl)piperazin-1-yl)methyl)-2,3,4,5-tetrahydro-[1,1′-biphenyl]-4-yl)methyl)-2,7-diazaspiro[3.5]nonan-2-yl)-8-oxooctanamido)-3,3-dimethylbutanoyl)-4-hydroxy-N—((S)-1-(4-(4-methylthiazol-5-yl)phenyl)ethyl)pyrrolidine-2-carboxamide] | < 50 | 50 to 150 |
| Cc1ncsc1-c1ccc([C@H](C)NC(=O)[C@@H]2C[C@@H](O)CN2C(=O)[C@@H](NC(=O)CCCCCC(=O)NC2CCN(CC3(C)CCC(c4ccc(Cl)cc4)=C(CN4CCN(c5ccc(C(=O)NS(=O)(=O)c6ccc(N[C@H](CCN7CCOCC7)CSc7ccccc7)c(S(=O)(=O)C(F)(F)F)c6)cc5)CC4)C3)CC2)C(C)(C)C)cc1 (stereo partly drawn) [degrader #37, N1-(1-((4′-chloro-4-methyl-6-((4-(4-(((4-(((R)-4-morpholino-1-(phenylthio)butan-2-yl)amino)-3-((trifluoromethyl)sulfonyl)phenyl)sulfonyl)carbamoyl)phenyl)piperazin-1-yl)methyl)-2,3,4,5-tetrahydro-[1,1′-biphenyl]-4-yl)methyl)piperidin-4-yl)-N7-((S)-1-((2S,4R)-4-hydroxy-2-(((S)-1-(4-(4-methylthiazol-5-yl)phenyl)ethyl)carbamoyl)pyrrolidin-1-yl)-3,3-dimethyl-1-oxobutan-2-yl)heptanediamide] | < 50 | 150 to 500 |
| Cc1ncsc1-c1ccc([C@H](C)NC(=O)[C@@H]2C[C@@H](O)CN2C(=O)[C@@H](NC(=O)CCCCCCC(=O)NC2CCN(CC3(C)CCC(c4ccc(Cl)cc4)=C(CN4CCN(c5ccc(C(=O)NS(=O)(=O)c6ccc(N[C@H](CCN7CCOCC7)CSc7ccccc7)c(S(=O)(=O)C(F)(F)F)c6)cc5)CC4)C3)CC2)C(C)(C)C)cc1 (stereo partly drawn) [degrader #38, N1-(1-((4′-chloro-4-methyl-6-((4-(4-(((4-(((R)-4-morpholino-1-(phenylthio)butan-2-yl)amino)-3-((trifluoromethyl)sulfonyl)phenyl)sulfonyl)carbamoyl)phenyl)piperazin-1-yl)methyl)-2,3,4,5-tetrahydro-[1,1′-biphenyl]-4-yl)methyl)piperidin-4-yl)-N8-((S)-1-((2S,4R)-4-hydroxy-2-(((S)-1-(4-(4-methylthiazol-5-yl)phenyl)ethyl)carbamoyl)pyrrolidin-1-yl)-3,3-dimethyl-1-oxobutan-2-yl)octanediamide] | < 50 | 50 to 150 |
